Data reported in US9040566B2, “Adenosine A1 agonists for the treatment of glaucoma and ocular hypertension” (Bayer Intellectual Property GmbH, priority 2010, dated 2015).

What was measured:
rabbits = details: literature (Crosson); cited from earlier work
cynomolgus monkeys = details: literature (Kaufman et al.); cited from earlier work
Wistar rats = experiment: IOP measurements in rats (anesthetized, topical administration to the eye); format: in vivo; details: rat, 10 mg/ml, 10 μl
Experimental: B-1. IOP Measurements in Rats
Wistar rats with a body weight of about 300 g were anesthetized with isoflurane (2-3% in O2:N2O=1:2). The compounds were dissolved/suspended in an aqueous solution of sodium chloride (0.9%) and administered topically to the eye in 10 μl volume at a concentration of 10 mg/ml. IOP was measured with a rebound tonometer (TonoLab) at different time points after application of the compounds. Ocular pressure and effects of hemodynamic parameters can be monitored in this model. N^6-Cyclopentyl-Adenosine (CPA) is a known adenosine A1 agonist having the structure shown below: […]

Normotensive wistar rats = experiment: Blood pressure measurement in telemetric rats (conscious, topical administration to the eye); format: in vivo; details: conscious rat, 10 mg/ml
Source text: B-2. Blood Pressure Measurement in Telemetric Rats
Normotensive wistar rats with a body weight of 300 to 350 g were used for this experimental study. Blood pressure was monitored in freely moving conscious animals by radiotelemetry. Briefly, the telemetric system (DSI Data Science International, MN, USA) is composed on 3 basic elements: implantable transmitters (TA11PA-C40), receivers (RA1010) and a computer-based acquisition software (Dataquest A.R.T 2.1 for Windows). Rats were instrumented with pressure implants for chronic use at least 14 days prior the experiments. Rats were anesthetized with isoflurane (2-3% in O2:N2O=1:2). During catheter implantation under anesthesia, rats were kept on a heating mat. A fluid-filled sensor catheter was inserted upstream into the exposed descending aorta between the iliac bifurcation and the renal arteries. According to the DSI guidelines the tip of the telemetric catheter was located just caudal to the renal arteries and secured by tissue adhesive. The transmitter body was affixed to the inner peritoneal wall before closure of abdomen. In a hardware configuration equipped for 24 animals, each rat cage was positioned on top of an individual receiver platform. After activation of the implanted transmitters, A.R.T., an on-line data acqusition system, samples data and converts telemetric pressure signals into mm Hg. The compounds were dissolved/suspended in an aqueous solution of sodium chloride (0.9%) and administered topically to the eye in 10 μl volume at a concentration of 10 mg/ml. Given are % deviations from the control run-in period of 2 hours before substance administration.

[1] = test system: Female New Zealand rabbits; experiment: IOP measurements in conscious rabbits; format: in vivo; details: conscious rabbit, topical, 30 μl
Experimental: B-5. IOP Measurements in Conscious Rabbits
Female New Zealand rabbits with a body weight of about 4-5 kg were used to measure inner eye pressure (IOP). The compounds were dissolved/suspended in a solution of 10% transcutol, 10% solutol and 80% PBS, and given by topical administration at the eye in 30 μl volume. IOP was measured with a rebound tonometer (TonoVet) at different time points after application of the drugs. INO-8875 is a known adenosine A1 agonist having the structure shown below: […]

New Zealand rabbits = experiment: Assessment of blood pressure in telemetric rabbits; format: in vivo; details: conscious rabbit, topical, 30 μl
Experimental: B-6. Assessment of Blood Pressure and Heart Rate in Telemetric Rabbits Implantation of Telemetric Senders in Female New Zealand Rabbits:
New Zealand rabbits were used for implantation of the telemetric senders. Rabbits were pre-anaesthetized with Rompun® and Ketavet® i.m. at a dose of 5 mg/kg (in 0.25 ml/kg)+40 mg/kg (in 0.40 ml/kg) respectively. Anaesthesia was maintained with an i.v. infusion of Rompun® and Ketavet® (5-15 ml/h) with a solution of Rompun 2 ml (20 mg/1 ml)+Ketavet 4 ml (100 mg/ml) and 60 ml 0.9% aqueous solution of sodium chloride. Before surgery the hairs at the inner side of the back leg were completely removed and the skin were treated with local anaesthetic Xylocaln® Spray and disinfected with Braunol®. The rabbits were transferred to a sterile surgery unit and covered with sterile swabs and compressions. The skin was opened and the arteria femoralis was carefully dissected free and the pressure catheter of the telemetric implant C50 PXT® (DSI/Data Science International, St. Paul, Minn., U.S.A.) was inserted in the […] and forwarded abdominally under control of the pressure signal. The signal was detected with the RMC1-DSI® receiver plates and visualized with the PONEMAH® physiology platform software DSI/Data Science International, St. Paul, Minn., U.S.A.). After detection of a stable blood pressure signal the catheter was fixed with tissue-glue “Gewebepad” (DSI) and the two ECG electrodes were cut close to the transmitter. The transmitter was fixed under the skin of the rabbit. The wound was closed and finally treated with Nebacetin® Powder Spray. Post-operative analgesia was done with Metamizol i.m. 50 mg/kg in 0.1 ml/kg for 5 days after surgery. In addition a 5 day antibiotic therapy with Terramycin®/LA 20 mg/kg with 0.1 ml/kg was applied i.m. All rabbits recovered fully within one week of the surgery and were after 2 weeks adjustment to the measurement procedure used for the blood pressure detection.
Registration of MAP and HR in Conscious Female New Zealand Rabbits:
The rabbits with telemetric implants were housed for 5 hours in a transportation box which was placed on the RMC1-DSI® receiver plates. The signals were visualized, compiled and analyzed with the PONEMAH® physiology platform software. The systolic (SAP), diastolic (DAP) and mean arterial blood pressure (MAP) levels were registered in mmHg and the heart rate (HR) in beat/minutes was calculated from the interval between the systoles. Baseline levels for SAP, DAP and MAP as for HR were registered over a 2 hour equilibration period. The compounds were dissolved/suspended in a solution of 10% transcutol, 10% solutol and 80% PBS, and given by topical administration at the eye in 30 μl volume. Controls received the corresponding solvents. Baseline levels for SAP, DAP and MAP as for HR were registered over a 3 hour period after application.

OC[C@H]1O[C@@H](n2cnc3c(NC4CCCCC4)ncnc32)[C@H](O)[C@@H]1O [CHA, N6-cyclohexyl-adenosine]
effect on intraocular pressure (rabbits): lower intraocular pressure | effect on intraocular pressure (cynomolgus monkeys): lower intraocular pressure

OC[C@H]1O[C@@H](n2cnc3c(NC4CCCC4)ncnc32)[C@H](O)[C@@H]1O [CPA, N^6-Cyclopentyl-Adenosine]
IOP as percent of zero value (Wistar rats; time 0 min): 100.0% | IOP as percent of zero value (Wistar rats; time 15 min): 65.0% | IOP as percent of zero value (Wistar rats; time 30 min): 58.5% | IOP as percent of zero value (Wistar rats; time 45 min): 46.3% | IOP as percent of zero value (Wistar rats; time 60 min): 42.5% | IOP as percent of zero value (Wistar rats; time 90 min): 44.8% | IOP as percent of zero value (Wistar rats; time 120 min): 59.0% | mean arterial pressure (MAP) as percent change of zero value (Normotensive wistar rats; time 0.25 h): −25.4% | mean arterial pressure (MAP) as percent change of zero value (Normotensive wistar rats; time 0.75 h): −71.3% | mean arterial pressure (MAP) as percent change of zero value (Normotensive wistar rats; time 1.25 h): −58.9% | mean arterial pressure (MAP) as percent change of zero value (Normotensive wistar rats; time 1.75 h): −42.6% | mean arterial pressure (MAP) as percent change of zero value (Normotensive wistar rats; time 2.25 h): −30.3% | mean arterial pressure (MAP) as percent change of zero value (Normotensive wistar rats; time 2.75 h): −17.6% | mean arterial pressure (MAP) as percent change of zero value (Normotensive wistar rats; time 3.25 h): −16.4% | mean arterial pressure (MAP) as percent change of zero value (Normotensive wistar rats; time 3.75 h): −9.0% | mean arterial pressure (MAP) as percent change of zero value (Normotensive wistar rats; time 4.25 h): −8.4% | mean arterial pressure (MAP) as percent change of zero value (Normotensive wistar rats; time 4.75 h): −5.3% | mean arterial pressure (MAP) as percent change of zero value (Normotensive wistar rats; time 5.25 h): −0.7% | mean arterial pressure (MAP) as percent change of zero value (Normotensive wistar rats; time 5.75 h): −2.9% | mean arterial pressure (MAP) as percent change of zero value (Normotensive wistar rats; time 6.25 h): −2.7% | mean arterial pressure (MAP) as percent change of zero value (Normotensive wistar rats; time −0.25 h): 0.0%

O=[N+]([O-])OC[C@H]1O[C@@H](n2cnc3c(NC4CCCC4)ncnc32)[C@H](O)[C@@H]1O [INO-8875]
IOP as percent of zero value ([1]; 1.0 mg/mL, time 0 min): 100.0% | IOP as percent of zero value ([1]; 1.0 mg/mL, time 30 min): 85.3% | IOP as percent of zero value ([1]; 1.0 mg/mL, time 60 min): 86.7% | IOP as percent of zero value ([1]; 1.0 mg/mL, time 90 min): 93.3% | IOP as percent of zero value ([1]; 1.0 mg/mL, time 120 min): 100% | IOP as percent of zero value ([1]; 3.0 mg/mL, time 0 min): 100.0% | IOP as percent of zero value ([1]; 3.0 mg/mL, time 30 min): 89.3% | IOP as percent of zero value ([1]; 3.0 mg/mL, time 60 min): 81.3% | IOP as percent of zero value ([1]; 3.0 mg/mL, time 90 min): 79.0% | IOP as percent of zero value ([1]; 3.0 mg/mL, time 120 min): 87.3% | IOP as percent of zero value ([1]; 10.0 mg/mL, time 0 min): 100.0% | IOP as percent of zero value ([1]; 10.0 mg/mL, time 30 min): 74.0% | IOP as percent of zero value ([1]; 10.0 mg/mL, time 60 min): 60.0% | IOP as percent of zero value ([1]; 10.0 mg/mL, time 90 min): 61.3% | IOP as percent of zero value ([1]; 10.0 mg/mL, time 120 min): 65.0% | mean arterial pressure (MAP) (New Zealand rabbits; 1.0 mg/mL, time 0 min): 123.9 mm Hg | mean arterial pressure (MAP) (New Zealand rabbits; 1.0 mg/mL, time 30 min): 111.3 mm Hg | mean arterial pressure (MAP) (New Zealand rabbits; 1.0 mg/mL, time 60 min): 110.9 mm Hg | mean arterial pressure (MAP) (New Zealand rabbits; 1.0 mg/mL, time 90 min): 112.6 mm Hg | mean arterial pressure (MAP) (New Zealand rabbits; 1.0 mg/mL, time 120 min): 106.0 mm Hg | mean arterial pressure (MAP) (New Zealand rabbits; 3.0 mg/mL, time 0 min): 118.5 mm Hg | mean arterial pressure (MAP) (New Zealand rabbits; 3.0 mg/mL, time 30 min): 101.8 mm Hg | mean arterial pressure (MAP) (New Zealand rabbits; 3.0 mg/mL, time 60 min): 104.9 mm Hg | mean arterial pressure (MAP) (New Zealand rabbits; 3.0 mg/mL, time 90 min): 105.7 mm Hg | mean arterial pressure (MAP) (New Zealand rabbits; 3.0 mg/mL, time 120 min): 109.0 mm Hg | mean arterial pressure (MAP) (New Zealand rabbits; 10.0 mg/mL, time 0 min): 114.5 mm Hg | mean arterial pressure (MAP) (New Zealand rabbits; 10.0 mg/mL, time 30 min): 89.5 mm Hg | mean arterial pressure (MAP) (New Zealand rabbits; 10.0 mg/mL, time 60 min): 86.9 mm Hg | mean arterial pressure (MAP) (New Zealand rabbits; 10.0 mg/mL, time 90 min): 90.3 mm Hg | mean arterial pressure (MAP) (New Zealand rabbits; 10.0 mg/mL, time 120 min): 90.0 mm Hg

C[C@H](Cc1ccccc1)Nc1ncnc2c1ncn2[C@@H]1O[C@H](CO)[C@@H](O)[C@H]1O [R-PIA, R(−)-N6-(2-phenylisopropyl)adenosine]
effect on intraocular pressure (rabbits): lower intraocular pressure | effect on intraocular pressure (cynomolgus monkeys): lower intraocular pressure
